In US7662825B2, “N-pyrazinyl-phenylsulphonamides and their use in the treatment of chemokine mediated diseases” (AstraZeneca AB, priority 2002, dated 2010):
pIC50: −log10 of the molar value.

Target: T1, human recombinant CCR4 receptor (Homo sapiens, UniProt P51679)
T1 construct: host or cells: CHO-K1
T1 sequence (P51679 1-360): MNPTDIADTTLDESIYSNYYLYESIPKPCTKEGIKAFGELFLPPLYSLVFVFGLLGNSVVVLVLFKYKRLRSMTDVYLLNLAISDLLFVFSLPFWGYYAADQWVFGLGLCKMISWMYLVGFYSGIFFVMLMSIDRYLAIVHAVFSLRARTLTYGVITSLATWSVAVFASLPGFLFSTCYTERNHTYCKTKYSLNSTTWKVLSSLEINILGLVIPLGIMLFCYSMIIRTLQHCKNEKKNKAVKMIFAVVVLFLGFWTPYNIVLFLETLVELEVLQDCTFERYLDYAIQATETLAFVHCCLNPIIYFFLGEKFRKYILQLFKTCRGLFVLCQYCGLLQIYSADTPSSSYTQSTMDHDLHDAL
Assay: FMAT whole cell binding assay (FB-MDC binding to cells)
Conditions: CHO-K1 cells stably expressing human recombinant CCR4; inhibition of binding of fluorescent FB-MDC, two hours at room temperature
Experimental: FMAT Whole Cell Binding Assay
CHO—K1 cells stably expressing the human recombinant CCR4 receptor (Euroscreen; Brussels, Belgium) were cultured in NUT.MIX.F—12(HAM) medium with glutamax-1, containing 10% (v/v) foetal bovine serum and 400 μg ml^−1 geneticin.
Cells were harvested at approximately 70% confluence by treatment with a cell dissociation buffer, and seeded at 5×10^3 cells/100 μl culture medium into wells of a black Costar clear-bottomed 96-well microtitre plates. Plates were incubated overnight at 37° C. in 5% CO2 and used the following day.
Before use, the cell plates were washed twice with 100 μl Hanks balanced salt solution (HBSS). To each well was then added 65 μl of HBSS, 10 μL of 10% DMSO in HBSS±test compound and then 25 μL of 2.8 nM FB-MDC (Applied Biosystems). This fluorescent probe was prepared from a 10 μM stock in 0.08% (v/v) TFA/16% (v/v) acetonitrile, diluted into HBSS.
After two hours incubation in the dark at room temperature, the plates were analysed in an FMAT8100 reader (Applied Biosystems) to measure fluorescence that was associated with binding of FB-MDC to the cells.

First: COc1nc(CN2CCOCC2)cnc1NS(=O)(=O)c1cccc(Cl)c1Cl [Example 186, 2,3-Dichloro-N-[3-methoxy-5-(4-morpholinylmethyl)-2-pyrazinyl]benzenesulphonamide]
Second: COC(=O)c1nc(OC)c(NS(=O)(=O)c2cccc(Cl)c2Cl)nc1C [Example 119, 5-(2,3-Dichlorobenzenesulphonylamino)-6-methoxy-3-methylpyrazine-2-carboxylic aicd, methyl ester]
The pIC50 of the first is 1.00 log units lower: 6.20 for the first, 7.20 for the second. The second is the more potent here.

Tested on: not given
Assay: not given
Conditions: not given

First: COC(=O)c1nc(OC)c(NS(=O)(=O)c2cccc(Cl)c2Cl)nc1C [Example 119, 5-(2,3-Dichlorobenzenesulphonylamino)-6-methoxy-3-methylpyrazine-2-carboxylic aicd, methyl ester]
Second: COc1nc(CO)c(C)nc1NS(=O)(=O)c1cccc(Cl)c1Cl [Example 120, 2,3-Dichloro-N-[5-(hydroxymethyl)-3-methoxy-6-methyl-2-pyrazinyl)benzenesulphonamide]
The melting point of the first is lower: 149 to 150 °C for the first, 175 to 177 °C for the second.

First: O=S(=O)(Nc1ncc(Cl)nc1OCc1ccc(CNCCO)cc1)c1cccc(Cl)c1Cl [Example 110, 2,3-Dichloro-N-[5-chloro-3-{4-([2-hydroxyethylamino]methyl)phenylmethoxy}-2-pyrazinyl]benzenesulphonamide]
Second: COc1ccc(COc2nc(Cl)cnc2NS(=O)(=O)c2cccc(Cl)c2Cl)cc1 [Example 97, 2,3-Dichloro-N-[5-chloro-3-(4-methoxyphenylmethoxy)-2-pyrazinyl]benzenesulphonamide]
The melting point of the first is higher: 202 to 205 °C for the first, 163 to 164 °C for the second.

First: O=S(=O)(Nc1nc(Cl)cnc1Br)c1cccc(Cl)c1Cl [Example 98]
Second: C=CCOc1nc(Cl)cnc1NS(=O)(=O)c1cccc(Cl)c1Cl [Example 187, N-(3-Allyloxy-5-chloro-2-pyrazinyl)-2,3-dichlorobenzenesulphonamide]
The melting point of the first is lower: 123 to 124 °C for the first, 145 to 146 °C for the second.

Compared with `Cc1nc(COc2nc(Cl)cnc2NS(=O)(=O)c2cccc(Cl)c2Cl)co1` [Example 144, 2,3-Dichloro-N-{5-chloro-3-[(2-methyl-4-oxazolyl)methoxy]-2-pyrazinyl}benzenesulphonamide], `O=S(=O)(Nc1ncc(Cl)nc1OCc1cccnc1)c1cccc(Cl)c1Cl` [Example 36, N-[5-Chloro-3-(3-pyridinylmethoxy)-2-pyrazinyl]-2,3-dichlorobenzenesulphonamide] is higher in melting point: 172 to 173 °C for the first, 200 to 204 °C for the second.

First: COc1nc(C(F)F)cnc1NS(=O)(=O)c1cccc(Cl)c1Cl [Example 206, 2,3-Dichloro-N-(5-difluoromethyl-3-methoxy-2-pyrazinyl)benzenesulphonamide]
Second: COc1nc(S(C)(=O)=O)cnc1NS(=O)(=O)c1cccc(Cl)c1Cl [Example 203, 2,3-Dichloro-N-(5-methanesulphonyl-3-methoxy-2-pyrazinyl)benzenesulphonamide]
The melting point of the first is lower: 117 to 118 °C for the first, 237 to 238 °C for the second.

First: COc1nc(N2CCCC2)cnc1NS(=O)(=O)c1cccc(Cl)c1Cl [Example 57]
Second: COc1nc(-n2cncn2)cnc1NS(=O)(=O)c1cccc(Cl)c1Cl [Example 167, 2,3-Dichloro-N-[3-methoxy-5-([1,2,4]-1-triazolyl)-2-pyrazinyl]benzenesulphonamide]
The melting point of the first is lower: 179 to 180 °C for the first, 248 to 249 °C for the second.

First: O=S(=O)(Nc1ncc(Br)nc1OCc1cncnc1)c1cccc(Cl)c1Cl [Example 35, N-[5-Bromo-3-(5-pyrimidinylmethoxy)-2-pyrazinyl]-2,3-dichlorobenzenesulphonamide]
Second: CN(C)Cc1ccc(COc2nc(Br)cnc2NS(=O)(=O)c2cccc(Cl)c2Cl)o1 [Example 176, N-[5-Bromo-3-(5-dimethylaminomethyl-2-furanylmethoxy)-2-pyrazinyl]-2,3-dichloro-benzenesulphonamide]
The melting point of the first is higher: 208 to 209 °C for the first, 206 to 207 °C for the second.

First: COc1nc(Cl)cnc1NS(=O)(=O)c1cccc(Cl)c1C [Example 50, 3-Chloro-N-(5-chloro-3-methoxy-2-pyrazinyl)-2-methylbenzenesulphonamide]
Second: COc1nc(C)cnc1NS(=O)(=O)c1cccc(Cl)c1C [Example 43, 3-Chloro-N-(3-methoxy-5-methyl-2-pyrazinyl)-2-methylbenezenesulphonamide]
The melting point of the first is higher: 150 to 152 °C for the first, 133 to 135 °C for the second.

First: CCN(CC)C(=O)COc1cnc(NS(=O)(=O)c2cccc(Cl)c2Cl)c(OC)n1 [Example 204, 2-[5-(2,3-Dichlorobenzenesulphonylamino)-6-methoxy-2-pyrazinyloxy]-N,N-diethyl-acetamide]
Second: COC(=O)COc1cnc(NS(=O)(=O)c2cccc(Cl)c2Cl)c(OC)n1 [Example 199, {[5-(2,3-Dichlorophenylsulfonylamino)-6-methoxy-2-pyrazinyl]oxy}acetic acid, methyl ester]
The melting point of the first is lower: 117 to 118 °C for the first, 185 to 190 °C for the second.

First: Cc1c(Cl)cccc1S(=O)(=O)Nc1ncc(Cl)nc1OCc1cccnc1 [Example 95, 3-Chloro-N-[5-chloro-3-(3-pyridinylmethoxy)-2-pyrazinyl]-2-methylbenzenesulphonamide]
Second: O=S(=O)(Nc1nccnc1OCc1cccnc1)c1cccc(Cl)c1Cl [Example 29, 2,3-Dichloro-N-[3-(3-pyridinylmethoxy)-2-pyrazinyl]benzenesulphonamide]
The melting point of the first is higher: 192 to 193 °C for the first, 138 to 139 °C for the second.

Compared with `COc1nc(Cn2cncn2)cnc1NS(=O)(=O)c1cccc(Cl)c1Cl` [Example 195, 2,3-Dichloro-N-[3-methoxy-5-(1H-1,2,4-triazol-1-ylmethyl)-2-pyrazinyl]benzenesulphonamide], `COc1ncc(CO)nc1NS(=O)(=O)c1cccc(Cl)c1Cl` [Example 202, 2,3-Dichloro-N-[6-(hydroxymethyl)-3-methoxy-2-pyrazinyl]benzenesulphonamide] is higher in melting point: 95 to 105 °C for the first, 153 to 155 °C for the second.

First: COC(=O)CSc1cnc(NS(=O)(=O)c2cccc(Cl)c2Cl)c(OC)n1 [Example 82, [5-(2,3-Dichlorobenzenesulphonylamino)-6-methoxy-2-pyrazinylsulphanyl]acetic acid methyl ester]
Second: COC(=O)CCSc1cnc(NS(=O)(=O)c2cccc(Cl)c2Cl)c(OC)n1 [Example 117]
The melting point of the first is higher: 152 to 153 °C for the first, 146 to 148 °C for the second.

First: COc1nccnc1NS(=O)(=O)c1cccc(Cl)c1Cl [Example 30, 2,3-Dichloro-N-(3-methoxy-2-pyrazinyl)benzenesulphonamide]
Second: COc1nccnc1NS(=O)(=O)c1cccc(F)c1Cl [Example 131, 2-Chloro-3-fluoro-N-(3-methoxy-2-pyrazinyl)benzenesulphonamide]
The melting point of the first is higher: 183 to 184 °C for the first, 144 to 145 °C for the second.

Compared with `COc1nc(SCCO)cnc1NS(=O)(=O)c1cccc(Cl)c1Cl` [Example 177, 2,3-Dichloro-N-[5-(2-hydroxyethylsulphanyl)-3-methoxy-2-pyrazinyl]benzenesulphonamide], `COc1nc(SCCN)cnc1NS(=O)(=O)c1cccc(Cl)c1Cl` [Example 173, N-[5-(2-Aminoethylsulphanyl)-3-methoxy-2-pyrazinyl]-2,3-dichlorobenzenesulphonamide] is higher in melting point: 180 to 181 °C for the first, 189 to 190 °C for the second.

Compared with `COc1nc(N(C)C)c(Cl)nc1NS(=O)(=O)c1cccc(Cl)c1Cl` [Example 69, 2,3-Dichloro-N-[6-chloro-5-dimethylamino-3-methoxy-2-pyrazinyl]benzenesulphonamide], `COc1nc(Br)cnc1NS(=O)(=O)c1ccc(F)c(Cl)c1Cl` [Example 185, N-(5-Bromo-3-methoxypyrazinyl)-2,3-dichloro-4-fluorobenzenesulphonamide] is higher in melting point: 145 to 146 °C for the first, 208 to 211 °C for the second.

Compound `O=S(=O)(Nc1nc(Cl)cnc1OCc1ccccn1)c1cccc(Cl)c1Cl` [Example 100, 2,3-Dichloro-N-[6-chloro-3-(2-pyridinylmethoxy)-2-pyrazinyl]benzenesulphonamide] has a melting point of 201 to 203 °C.

In the case of `O=S(=O)(Nc1ncc(-c2ccncc2)nc1OCc1cccnc1)c1cccc(Cl)c1Cl` [Example 136, 2,3-Dichloro-N-[5-(4-pyridinyl)-3-(3-pyridinylmethoxy)-2-pyrazinyl]benzenesulphonaminde], the melting point was 210 °C (dec.).
In the case of `O=S(=O)(Nc1ncc(Cl)nc1OCc1ccncc1)c1cccc(Cl)c1Cl` [Example 87, 2,3-Dichloro-N-[5-chloro-3-(4-pyridinylmethoxy)-2-pyrazinyl]benzenesulphonamide], the melting point was 226 to 229 °C (dec.).
